Measurements as given in US20210115106A1, “MODIFIED T CELL RECEPTORS” (JANUX THERAPEUTICS, INC., priority 2017, published 2021).
Ends that are not written are not given here.

Key:
Neutravidin [1] = biological target: T1, Neutravidin (Gallus gallus, UniProt P02701); experiment: Primary phagemid binding ELISA, Neutravidin control wells (TCR-1 panning); conditions: ELISA signal; Neutravidin alone
Text: (§3) The next day the deep well plates were centrifuged to separate the soluble phagemid from the E. coli cells. […] After binding at 4 degrees the plates were washed, and specifically bound phage were detected by anti-m13 HRP conjugated antibodies using standard TMB-based chromogenic ELISA procedures. Daughter plates or individual wells were subjected to standard DNA sequencing for clonal peptide sequence identification.

TCR-1 [2] = experiment: Secondary pMHC phagemid competition ELISA on TCR-1; type: binding; conditions: for Secondary pMHC phagemid competition ELISA binding with 200 nM pMHC competitor / Secondary pMHC phagemid competition ELISA IC-3 binding no pMHC competitor: ELISA signal; for Secondary pMHC phagemid competition ELISA binding with 200 nM pMHC competitor: 200 nM Human MAGE-A3 pMHC competitor; for % binding with pMHC competition: TCR-1, 200 nM pMHC competitor relative to no competitor
Sequence of TCR-1 (as listed by the source): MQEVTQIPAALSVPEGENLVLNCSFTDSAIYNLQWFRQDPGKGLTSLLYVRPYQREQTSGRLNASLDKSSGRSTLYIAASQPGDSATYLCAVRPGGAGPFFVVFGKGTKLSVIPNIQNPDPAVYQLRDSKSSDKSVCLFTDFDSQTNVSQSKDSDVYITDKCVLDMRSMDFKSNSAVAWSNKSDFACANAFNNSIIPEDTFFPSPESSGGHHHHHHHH
Sequence of TCR-1 (as listed by the source): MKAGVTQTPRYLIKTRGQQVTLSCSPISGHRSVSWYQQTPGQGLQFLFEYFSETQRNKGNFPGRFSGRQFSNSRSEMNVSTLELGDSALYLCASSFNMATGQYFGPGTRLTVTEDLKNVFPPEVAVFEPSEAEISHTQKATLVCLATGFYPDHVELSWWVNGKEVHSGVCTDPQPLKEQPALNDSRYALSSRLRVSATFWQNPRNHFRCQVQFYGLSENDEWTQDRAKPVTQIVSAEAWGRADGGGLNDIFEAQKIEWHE
Method: Human MAGE-A3 pMHC was added to wells to block the active binding site. After a brief incubation period phagemid supernatants were added to both sets of wells. Following further incubation at 4 degrees the plates were washed and specifically bound phage were detected by anti-m13 HRP conjugated antibodies using standard TMB-based chromogenic ELISA procedures. Phagemid clones binding within the antigenic binding pocket would be blocked and be identified by a decreased ELISA signal, compared to a well lacking previous pMHC blockade.

[3] = biological target: TCR-1 binding to MAGE-A3 pMHC; experiment: Peptide inhibition of TCR-1 kinetic binding to MAGE-A3 pMHC (BLI); conditions: 50 nM TCR-1; result in words
Method: Zero concentration of inhibitory peptide (100% binding) or zero concentration of TCR (0% binding) was used as a control. Biotinylated pMHC was captured on streptavidin biosensors. Sensors were quenched using excess biocytin and then baselined in buffer. Inhibitory peptide and TCR mixtures were associated onto the pMHC loaded biosensor. Association signal was monitored in real-time. Biosensors were then transferred to buffer and the dissociation signal was measured in real-time.
Zero concentration of inhibitory peptide (100% binding) or zero concentration of TCR (0% binding) was used as a control. Biotinylated pMHC was captured on streptavidin biosensors. Sensors were quenched using excess biocytin and then baselined in buffer. […] Association signal was monitored in real-time. Biosensors were then transferred to buffer and the dissociation signal was measured in real-time. Data was baseline corrected. The maximal association signal was normalized from 100% (0 uM inhibitory peptide control) to 0% (0 uM TCR control) and plotted versus log-scale inhibitory peptide concentration. […]
Inhibitory peptide titrated in a 2-fold dilution series starting from 100 uM was first incubated with a constant concentration of 50 nM TCR. […] Association signal was monitored in real-time. Biosensors were then transferred to buffer and the dissociation signal was measured in real-time. […]

[4] = test system: TCR-1, TCR-8, TCR-9, TCR-10; experiment: BLI binding specificity of Peptide-5 against TCR-1 and closely related TCRs; conditions: TCRs from 50 nM or at 100 uM on saturating Peptide-5
Method: The other TCRS chosen are closely related to the target TCR-1. BLI based kinetic binding of TCR-land closely related TCRS, TCR-8, TCR-9, and TCR-10 to inhibitory peptides was measured using a ForteBio Octet RED96 instrument. Biotinylated peptides were first captured on streptavidin biosensors. Sensors were quenched using excess biocytin and then baselined in buffer. TCRs were titrated in a 2-fold dilution series starting from 50 nM and were associated onto the inhibitory peptide loaded biosensor. Association signal was monitored in real-time. Biosensors were then transferred to buffer and the dissociation of TCR was measured in real-time. Response data was baseline corrected and fit to a 1:1 binding model used to calculate association and dissociation rates.
BLI based kinetic binding of TCR-land closely related TCRS, TCR-8, TCR-9, and TCR-10 to inhibitory peptides was measured using a ForteBio Octet RED96 instrument. Biotinylated peptides were first captured on streptavidin biosensors until signal saturation. Sensors were quenched using excess biocytin and then baselined in buffer. TCRs were associated 100 uM onto the inhibitory peptide loaded biosensor. Association signal was monitored in real-time. Biosensors were then transferred to buffer and the dissociation of TCR was measured in real-time. […]

Neutravidin [5] = biological target: T1, Neutravidin; experiment: Primary phagemid binding ELISA, Neutravidin control wells (TCR-8 panning); conditions: ELISA signal; Neutravidin alone
Method: The next day the deep well plates were centrifuged to separate the soluble phagemid from the E. coli cells. The phagemid containing supernatants were then combined with PBS-Tween 20 (0.05%)+BSA (1%) blocking buffer and incubated in ELISA wells containing Neutravidin captured biotin-conjugated TCR-8 (Table 1) or Neutravidin alone. After binding at 4 degrees the plates were washed and specifically bound phage were detected by anti-m13 HRP conjugated antibodies using standard TMB-based chromogenic ELISA procedures. Daughter plates or individual wells were subjected to standard DNA sequencing for clonal peptide sequence identification.

TCR-8 [6] = experiment: Secondary pMHC phagemid competition ELISA on TCR-8; type: binding
Sequence of TCR-8 (as listed by the source): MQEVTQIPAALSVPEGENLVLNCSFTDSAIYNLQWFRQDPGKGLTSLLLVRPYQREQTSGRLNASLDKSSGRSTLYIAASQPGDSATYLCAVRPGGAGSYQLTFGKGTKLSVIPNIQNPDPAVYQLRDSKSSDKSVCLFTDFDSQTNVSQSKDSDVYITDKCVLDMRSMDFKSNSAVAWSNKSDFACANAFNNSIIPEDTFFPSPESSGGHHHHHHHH
Sequence of TCR-8 (as listed by the source): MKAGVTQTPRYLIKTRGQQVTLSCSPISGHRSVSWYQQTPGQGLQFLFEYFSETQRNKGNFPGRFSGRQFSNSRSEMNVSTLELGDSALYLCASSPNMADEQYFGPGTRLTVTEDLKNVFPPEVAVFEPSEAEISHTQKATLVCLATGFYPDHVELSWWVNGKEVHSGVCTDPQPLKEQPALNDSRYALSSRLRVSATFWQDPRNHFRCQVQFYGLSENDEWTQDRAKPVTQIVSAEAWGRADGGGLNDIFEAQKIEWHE
Method: TCR-8 immobilized and blocked 96-well ELISA plates similar to above were prepared. Tetrameric human MAGE-A3 pMHC was first added to wells to block the active binding site. After a brief incubation period (30-60 minutes) phagemid supernatants were added to both sets of wells. Following further incubation at 4 degrees the plates were washed and specifically bound phage were detected by anti-m13 HRP conjugated antibodies using standard TMB-based chromogenic ELISA procedures.

TCR-8 [7] = experiment: Primary phagemid binding ELISA, TCR-8 wells; conditions: ELISA signal; phagemid supernatant on Neutravidin captured biotin-conjugated TCR-8
TCR-1 [8] = experiment: Primary phagemid binding ELISA, TCR-1 wells; conditions: ELISA signal; phagemid supernatant on Neutravidin captured biotin-conjugated TCR-1
Text: as §3

TCR-1 [9] = experiment: ELISA-based binding of TCR-1 to synthetic peptides; conditions: result in words; numbers are in Table 3, not printed here
Method: (§1) ELISA-based binding: High binding plates were first coated with neutravidin. Neutravidin coated plates were blocked using bovine serum albumin in buffer and washed. Biotinylated peptide or pMHC at a single concentration of 100 nM was captured on neutravidin coated plates, quenched using excess biocytin, and washed. […] TCR was then titrated onto the peptide or pMHC captured plates for 1 hour and washed. […] Plates were then developed using tetramethylbenzidine (TMB) for 5-10 min and stopped using acid.
as §1, with “High” for “ELISA-based binding: High”, “peptide” for “peptide or pMHC”, “acid. Absorbance at 450 nm was measured for each plate and plotted versus log-scale TCR concentration. […]” for “acid.”
High binding plates were first coated with neutravidin. Neutravidin coated plates were blocked using bovine serum albumin in buffer and washed. […] Absorbance at 450 nm was measured for each plate and plotted versus log-scale TCR concentration.

[10] = biological target: TCR-1 binding to MAGE-A3 pMHC; experiment: Peptide inhibition of TCR-1 binding to MAGE-A3 pMHC in competitive binding ELISA; conditions: 1 nM TCR-1, result in words
Method: (§2) Peptide inhibition in competitive binding ELISAs: High binding plates were first coated with neutravidin. Neutravidin coated plates were blocked using bovine serum albumin in buffer and washed. Biotinylated pMHC at a single concentration of 100 nM was captured on neutravidin coated plates, quenched using excess biocytin, and washed. […] Inhibitory peptide and TCR mixtures were then added to the pMHC captured plates for 30 min and washed. […] Plates were then developed using tetramethylbenzidine (TMB) for 5-10 min and stopped using acid.
as §2, with “High” for “Peptide inhibition in competitive binding ELISAs: High”, “acid. Absorbance at 450 nm was measured for each plate and plotted versus log-scale inhibitory peptide concentration.” for “acid.”
High binding plates were first coated with neutravidin. Neutravidin coated plates were blocked using bovine serum albumin in buffer and washed. […] Absorbance at 450 nm was measured for each plate and plotted versus log-scale inhibitory peptide concentration.

Neutravidin [11] = biological target: T1, Neutravidin; experiment: primary phagemid binding ELISA, Neutravidin alone

T1 sequence (P02701 25-152): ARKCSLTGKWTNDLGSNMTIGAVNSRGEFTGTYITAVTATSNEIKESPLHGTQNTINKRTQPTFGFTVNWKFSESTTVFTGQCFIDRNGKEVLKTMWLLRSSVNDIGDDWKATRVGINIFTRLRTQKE

Q: How did the “Primary Phagemid binding ELISA Neutravidin control wells” value (Neutravidin [1]) turn out when GGLADYCEHPMCYWYS [J272_B10] was run?
A: 0.068

Q: And the “Secondary pMHC phagemid competition ELISA binding with 200 nM pMHC competitor” value (TCR-1 [2])?
A: 0.075

Q: And the “Secondary pMHC phagemid competition ELISA IC-3 binding no pMHC competitor” value (TCR-1 [2])?
A: 1.683

Q: What about the “% binding with pMHC competition” value (TCR-1 [2]) of the same molecule?
A: 4%

Q: Which results are given for “GGVSCKDVYDEAFCWT [Peptide-5, synthesized with a biotinylated linker and C-terminal amidation]”?
A: IC50, inhibition of TCR-1 binding to MAGE-A3 pMHC [3]: lowest; binding specificity for TCR-1 against closely related TCRs [4]: selective for TCR-1

Q: With “GGVICENWQGDRVCWF [J308_A09] (phagemid-displayed)” as the molecule, how does the “Primary phagemid binding ELISA Netravidin Control wells” value (Neutravidin [5]) read?
A: 0.236

Q: And the “Secondary pMHC phagemid competition ELISA binding with 100 nM pMHC tetramer competitor” value (TCR-8 [6]; ELISA signal, 100 nM tetrameric human MAGE-A3 pMHC)?
A: 0.570

Q: What about the “Secondary pMHC phagemid competition ELISA TCR-8 binding no pMHC competitor” value (TCR-8 [6]; ELISA signal, no pMHC competitor) of the same molecule?
A: 1.877

Q: What about the “% binding with pMHC competition” value (TCR-8 [6]; TCR-8, 100 nM pMHC tetramer competitor relative to no competitor) of the same molecule?
A: 30%

Q: What about the “Primary phagemid binding ELISA TCR-8 wells” value (TCR-8 [7]) of the same molecule?
A: 3.065

Q: Which “Primary Phagemid binding ELISA Neutravidin control wells” value (Neutravidin [1]) does the source give for GGLADYCEHPMCYWYS [J250_G02] here?
A: 0.152

Q: And the “Primary Phagemid binding ELISA TCR-1 wells” value (TCR-1 [8])?
A: 3.122

Q: What does the source list for “Peptide-24: Peptide-5 alanine scan peptide, substitution of lysine at the 6th amino acid position (GGVSCADVYDEAFCWT-NH2; not fully specified; cysteine pairing not given here; also: biotinylated linker, place not given here)”?
A: binding EC50 (TCR-1 binding to peptide by ELISA) (TCR-1 [9]): mild improvements; competitive binding IC50 [10]: mild improvement

Q: “GGVICENWQGDRVCWF [J308_A03] (phagemid-displayed)” was tested. Which “Primary phagemid binding ELISA Netravidin Control wells” value (Neutravidin [5]) did it give?
A: 0.132

Q: What about the “Primary phagemid binding ELISA TCR-8 wells” value (TCR-8 [7]) of the same molecule?
A: 3.157

Q: How did the “Primary Phagemid binding ELISA Neutravidin control wells” value (Neutravidin [1]) turn out when GGDVRCFMRMMECVLL [J289_D10] was run?
A: 0.120

Q: What about the “Secondary pMHC phagemid competition ELISA binding with 200 nM pMHC competitor” value (TCR-1 [2]) of the same molecule?
A: 0.132

Q: What about the “Secondary pMHC phagemid competition ELISA IC-3 binding no pMHC competitor” value (TCR-1 [2]) of the same molecule?
A: 1.881

Q: What about the “% binding with pMHC competition” value (TCR-1 [2]) of the same molecule?
A: 7%

Q: For GGDVRCFMRMMECVLL [J289_D10], which ELISA signal (Neutravidin control wells) (Neutravidin [11]) is on record?
A: 0.12
